{"source": "paper PMC7997032", "about": "“Organic synthesis and anti-influenza A virus activity of cyclobakuchiols A, B, C, and D” (PLoS ONE, 2021)", "key": {"A/PR/8/34 virus [1]": {"system": "A/PR/8/34 virus", "test": "Influenza A viral growth assay (viral titer of culture media)", "type": "cell-based, influenza A H1N1 virus", "parameters": "viral titer of culture media, individual replicate / viral titer of culture media, ave: unit not given here", "details": "A/PR/8/34 (PR8), 12.5uM, average of #1-3 exp (n=9)"}, "A/WSN/33 virus [2]": {"system": "A/WSN/33 virus", "test": "Influenza A viral growth assay (viral titer of culture media)", "type": "cell-based, influenza A H1N1 virus", "details": "A/WSN/33 (WSN), 12.5uM, average of #1-3 exp (n=9)"}, "A/PR/8/34 virus [3]": {"system": "A/PR/8/34 virus", "test": "RT-qPCR of viral mRNAs (NP, NS1, PA, PB1, PB2, M2) in infected MDCK cells", "type": "cell-based, influenza A H1N1 virus"}, "A/PR/8/34 virus [4]": {"system": "A/PR/8/34 virus", "type": "cell-based", "details": "12.5 μM, 24h WB"}, "[5]": {"system": "canine interferon-β (Ifn-β)", "test": "RT-qPCR of Ifn-β mRNA in MDCK cells with or without A/PR/8/34 virus", "type": "cell-based", "details": "12.5uM, relative to virus - DMSO; for MDCK IFN-b mRNA, ave: ave of #1-3 exp; for MDCK IFN-b mRNA, individual replicates: replicates 1-3 of #1, #2, #3 exp, listed as Cyclobakuchiol B"}, "[6]": {"system": "NAD(P)H quinone oxidoreductase 1 (Nqo1)", "test": "RT-qPCR of Nqo1 mRNA in MDCK cells with or without A/PR/8/34 virus", "type": "cell-based, canine", "details": "for NQO1 Canis lupus mRNA, ave / NQO1 Canis lupus mRNA, individual replicates: 12.5uM, MDCK, relative to virus - DMSO; for NQO1 Canis lupus mRNA, ave: ave of #1-3 exp; for NQO1 Canis lupus mRNA, individual replicates: replicates 1-3 of #1, #2, #3 exp, listed as Cyclobakuchiol B"}, "Nrf2": {"system": "Nrf2", "test": "Nrf2 reporter assay (dual luciferase system) in MDCK cells", "type": "cell-based, canine"}, "A/PR/8/34 virus [7]": {"system": "A/PR/8/34 virus", "test": "Immunofluorescence staining of viral NP in influenza A virus-infected MDCK cells", "details": "for NP/DAPI (%) ave: average of 9 wells"}, "A/WSN/33 virus [8]": {"system": "A/WSN/33 virus", "test": "Immunofluorescence staining of viral NP in influenza A virus-infected MDCK cells", "details": "WSN"}, "[9]": {"details": "MDCK cells, PR8 virus, relative to DMSO (about 1), ave of #1-3 exp (9 values)"}, "[10]": {"details": "MDCK cells, PR8 virus, relative to DMSO, replicates 1-3 of #1, #2, #3 exp, listed as Cyclobakuchiol B"}}, "note": "Where “and” joins values, the source holds several entries; their conditions need not be identical. Equal entries are not always repeated.", "data": [{"smiles": "C=C[C@]1(C)CCC(C(=C)C)C(c2ccc(O)cc2)C1", "note": "(stereo in doubt) [cyclobakuchiol B]", "values": [{"measurement": "viral titer of culture media, ave", "setting": "A/PR/8/34 virus [1]; 12h", "result": 24444.4}, {"measurement": "viral titer of culture media, ave", "setting": "A/PR/8/34 virus [1]; 48h", "result": 41111.1}, {"measurement": "viral titer of culture media, ave", "setting": "A/PR/8/34 virus [1]; 72h", "result": 58888.9}, {"measurement": "viral titer of culture media, ave", "setting": "A/WSN/33 virus [2]; 12h", "result": 12633.3}, {"measurement": "viral titer of culture media, ave", "setting": "A/WSN/33 virus [2]; 24h", "result": 25455556}, {"measurement": "viral titer of culture media, ave", "setting": "A/WSN/33 virus [2]; 48h", "result": 275666667}, {"measurement": "viral titer of culture media, ave", "setting": "A/WSN/33 virus [2]; 72h", "result": 208055556}, {"measurement": "PR8 NP gene expression qPCR, ave", "setting": "A/PR/8/34 virus [3]; MDCK PR8, NP mRNA, relative (DMSO about 1), average of #1-3 exp (n=9)", "result": 0.03219}, {"measurement": "PR8 NP gene expression qPCR, individual replicate", "setting": "A/PR/8/34 virus [3]; MDCK PR8, NP mRNA, relative (DMSO about 1), replicates of #1-3 exp, listed as Cyclobakuchiol B", "result": "0.01121 and 0.02587 and 0.02406 and 0.03207 and 0.05973 and 0.04959 and 0.06567 and 0.01197 and 0.009584"}, {"measurement": "PR8 NS1 gene expression qPCR, ave", "setting": "A/PR/8/34 virus [3]; MDCK PR8, NS1 mRNA, relative (DMSO about 1), average of #1-3 exp (n=9)", "result": 0.02013}, {"measurement": "PR8 NS1 gene expression qPCR, individual replicate", "setting": "A/PR/8/34 virus [3]; MDCK PR8, NS1 mRNA, relative (DMSO about 1), replicates of #1-3 exp, listed as Cyclobakuchiol B", "result": "0.008731 and 0.02017 and 0.01871 and 0.02102 and 0.03896 and 0.02064 and 0.02879 and 0.01388 and 0.01026"}, {"measurement": "PR8 PA gene expression qPCR, ave", "setting": "A/PR/8/34 virus [3]; MDCK PR8, PA mRNA, relative (DMSO about 1), average of #1-3 exp (n=9)", "result": 0.02293}, {"measurement": "PR8 PA gene expression qPCR, individual replicate", "setting": "A/PR/8/34 virus [3]; MDCK PR8, PA mRNA, relative (DMSO about 1), replicates of #1-3 exp, listed as Cyclobakuchiol B", "result": "0.01293 and 0.01727 and 0.01489 and 0.01881 and 0.04016 and 0.03375 and 0.04497 and 0.01194 and 0.01167"}, {"measurement": "PR8 M2 gene expression qPCR, ave", "setting": "A/PR/8/34 virus [3]; [9]", "result": 0.0246}, {"measurement": "PR8 PB1 gene expression qPCR, ave", "setting": "A/PR/8/34 virus [3]; [9]", "result": 0.01874}, {"measurement": "PR8 PB2 gene expression qPCR, ave", "setting": "A/PR/8/34 virus [3]; [9]", "result": 0.02588}, {"measurement": "PR8 M2 gene expression qPCR, individual replicates", "setting": "A/PR/8/34 virus [3]; [10]", "result": "0.01123 and 0.02732 and 0.01583 and 0.02218 and 0.04353 and 0.0372 and 0.04279 and 0.01139 and 0.009915"}, {"measurement": "PR8 PB1 gene expression qPCR, individual replicates", "setting": "A/PR/8/34 virus [3]; [10]", "result": "0.01046 and 0.01271 and 0.006702 and 0.01001 and 0.03897 and 0.03125 and 0.03696 and 0.01163 and 0.009984"}, {"measurement": "PR8 PB2 gene expression qPCR, individual replicates", "setting": "A/PR/8/34 virus [3]; [10]", "result": "0.01333 and 0.02659 and 0.01745 and 0.02138 and 0.03944 and 0.03441 and 0.05711 and 0.01315 and 0.01011"}, {"measurement": "NP/b-actin ave", "setting": "A/PR/8/34 virus [4]; average of 3 experiments", "result": 0.58}, {"measurement": "NS1/b-actin ave", "setting": "A/PR/8/34 virus [4]; average of 3 experiments", "result": 0.5288}, {"measurement": "NP mean (western blot signal intensity, ImageJ)", "setting": "A/PR/8/34 virus [4]; single experiment", "result": "62.433 and 67.763 and 96.513"}, {"measurement": "NP/b-actin", "setting": "A/PR/8/34 virus [4]; single experiment", "result": "0.7275 and 0.4304 and 0.582"}, {"measurement": "NS1/b-actin", "setting": "A/PR/8/34 virus [4]; single experiment", "result": "0.4321 and 0.5028 and 0.6516"}, {"measurement": "NS1 mean (western blot signal intensity, ImageJ)", "setting": "A/PR/8/34 virus [4]; single experiment", "result": "72.927 and 75.866 and 57.321"}, {"measurement": "MDCK IFN-b mRNA, ave", "setting": "[5]; virus +", "result": 5.577}, {"measurement": "MDCK IFN-b mRNA, individual replicates", "setting": "[5]; virus +", "result": "1.734 and 10.09 and 8.268 and 12.9454 and 4.2 and 4.194 and 4.358 and 1.919 and 2.486"}, {"measurement": "MDCK IFN-b mRNA, ave", "setting": "[5]; virus -", "result": 2.313}, {"measurement": "MDCK IFN-b mRNA, individual replicates", "setting": "[5]; virus -", "result": "0.5929 and 0.6599 and 7.314 and 8.038 and 1.086 and 0.609 and 1.136 and 0.5738 and 0.8068"}, {"measurement": "relative mRNA level of Nqo1 compared with 5-treated cells", "setting": "[6]", "result": "significantly higher"}, {"measurement": "NQO1 Canis lupus mRNA, ave", "setting": "[6]; virus + (PR8)", "result": 1.527}, {"measurement": "NQO1 Canis lupus mRNA, individual replicates", "setting": "[6]; virus + (PR8)", "result": "1.793 and 1.729 and 1.393 and 1.933 and 1.0008 and 1.009 and 1.147 and 1.683 and 2.053"}, {"measurement": "NQO1 Canis lupus mRNA, ave", "setting": "[6]; virus -", "result": 1.333}, {"measurement": "NQO1 Canis lupus mRNA, individual replicates", "setting": "[6]; virus -", "result": "1.179 and 1.391 and 1.475 and 1.419 and 1.382 and 1.189 and 1.372 and 1.36 and 1.235"}, {"measurement": "relative mRNA level of Nqo1 compared with DMSO", "setting": "[6]; without A/PR/8/34 virus, 12.5 μM, 24 h", "result": "significantly upregulated"}, {"measurement": "Nrf2 activation (reporter assay) in contrast to DMSO", "setting": "Nrf2; 12.5 μM, 24 h, MDCK cells", "result": "induced"}, {"measurement": "pNQO1-ARE-Luc NRF2 reporter assay, ave", "setting": "Nrf2; 12.5uM, relative to DMSO trans+, ave of #1-3 exp", "result": 1.319}, {"measurement": "pNQO1-ARE-Luc NRF2 reporter assay, individual replicates", "setting": "Nrf2; 12.5uM, relative to DMSO trans+, two values each of #1, #2, #3 exp, listed as Cyclobakuchiol B", "result": "1.305 and 0.9752 and 1.512 and 1.4747 and 1.32 and 1.325"}, {"measurement": "percentage of influenza A NP-positive cells relative to DMSO", "setting": "A/PR/8/34 virus [7]; A/PR/8/34, 3.1 μM, 24 h, Fig 4B", "result": "significantly reduced"}, {"measurement": "NP/DAPI (%) ave", "setting": "A/PR/8/34 virus [7]; A/PR/8/34, 3.13 uM", "result": 5.089, "unit": "%"}, {"measurement": "NP/DAPI (%) ave", "setting": "A/PR/8/34 virus [7]; A/PR/8/34, 6.25 uM", "result": 1.925, "unit": "%"}, {"measurement": "NP/DAPI (%) ave", "setting": "A/PR/8/34 virus [7]; A/PR/8/34, 12.5 uM", "result": 1.075, "unit": "%"}, {"measurement": "NP/DAPI (%) ave", "setting": "A/PR/8/34 virus [7]; A/PR/8/34, 25 uM", "result": 0.927, "unit": "%"}, {"measurement": "IC50", "setting": "A/PR/8/34 virus [7]; Influenza A virus, PR/8, MDCK, read-out: half maximal (50%) inhibitory concentration (IC50)", "result": "2.4 ± 0.6", "unit": "µM"}, {"measurement": "NP/DAPI (%) ave", "setting": "A/WSN/33 virus [8]; 3.13uM, ave of 9 values (3 exp)", "result": 30.5534, "unit": "%"}, {"measurement": "NP/DAPI (%) ave", "setting": "A/WSN/33 virus [8]; 6.25uM, ave of 9 values (3 exp)", "result": 28.157, "unit": "%"}, {"measurement": "NP/DAPI (%) ave", "setting": "A/WSN/33 virus [8]; 12.5uM, ave of 9 values (3 exp)", "result": 30.5618, "unit": "%"}, {"measurement": "NP/DAPI (%) ave", "setting": "A/WSN/33 virus [8]; 25uM, ave of 9 values (3 exp)", "result": 32.0683, "unit": "%"}, {"measurement": "NP/DAPI (%) ave", "setting": "A/WSN/33 virus [8]; ave summary, 3.13%", "result": 30.5534, "unit": "%"}, {"measurement": "NP/DAPI (%) ave", "setting": "A/WSN/33 virus [8]; ave summary, 6.25%", "result": 28.157, "unit": "%"}, {"measurement": "NP/DAPI (%) ave", "setting": "A/WSN/33 virus [8]; ave summary, 12.50%", "result": 30.5618, "unit": "%"}, {"measurement": "NP/DAPI (%) ave", "setting": "A/WSN/33 virus [8]; ave summary, 25%", "result": 32.0683, "unit": "%"}]}]}
